Assay results taken from patent US12723233B2, “Media and methods for differentiating natural killer cells” (STEMCELL Technologies Canada Inc., priority 2018, dated 2026).
“Also recorded” adds a separate entry of the source.

Experiments:
NK cell progenitors = assay: Differentiation of cord blood CD34+-derived NK cell progenitors to CD56+ NK cells (culture days 14-28), flow cytometry and cell counts; format: cell-based, Human
Procedure: Human CB samples were obtained from Bloodworks NW (Seattle, WA) and CD34^+ cells were isolated using EasySep™ Human Cord Blood CD34 Positive Selection Kit II (STEMCELL Technologies, Catalogue #17896). Obtained in this way the purity of CD34^+ cells is typically higher than 90%.
The wells of a 24-well plate were coated with StemSpan™ Lymphoid Differentiation Coating Supplement (STEMCELL Technologies, Catalogue #09925) and 5000 CD34^+ cells were plated per well. The CD34^+ cells were cultured for up to 14 days in StemSpan™ SFEM II (STEMCELL Technologies, Catalogue #09605, 09655) supplemented with Lymphoid Progenitor Expansion Supplement (STEMCELL Technologies, Catalogue #09915) with media changes every 3-4 days.
After 14 days in culture, CD34^+ cell-derived NK cell progenitors were harvested. 50,000 NK cell progenitors were plated per well of an uncoated tissue culture 24-well plate. The plated NK cell progenitors were cultured for up to two weeks in NK Cell Differentiation medium (i.e StemSpan™ SFEM II (STEMCELL Technologies, Catalog # 09605, 09655) supplemented with NK Cell Differentiation Supplement (STEMCELL Technologies, Catalogue #09950), and cultured for an additional two weeks with media changes every 3-4 days. UM729 or UM171 was added to supplemented NK Cell Differentiation Medium on days 14-28. On day 28 cells were harvested for analysis or downstream applications.
Harvested cells were stained and measured by flow cytometry for expression of the NK cell lineage marker CD56. Dead cells were excluded by light scatter profile and 7-AAD or DRAQ7 staining. The results in FIGS. 1 and 2 at condition “0” (plotted on the x-axis) indicate the frequency and yield of CD56^+ NK cells that result from experiments that follows the protocol described above but in the absence of UM171 or UM729. Cell counts were obtained using the NucleoCounter NC250. Yield was calculated by dividing the resulting cell number by the number of cells initially seeded. Yields of specific cell types were obtained by multiplying total yield by cell frequency.
Cells were cultured as described in Example 1, with the exception that the up to two week culture of NK cell progenitors (i.e. culture days 14-28) in NK Cell Differentiation medium occurred in the presence or absence of UM171 or UM729.
The effects of UM171 and UM729 were tested across a range of concentrations: 0 nM, 50 nM, 100 nM, 150 nM and 200 nM for UM171; and 0 μM, 0.25 μM, 0.5 μM, 1 μM, and 2 μM for UM729.
CD34^+ CB cells were isolated and cultured as described in Example 1 up to the day 14 time point. Day 14 NK cell progenitors were further cultured in NK Cell Differentiation medium, essentially as described in Example 1, except in the absence of an added pyrimidoindole compound but in the presence or absence of 5 μM CH223191.

[1] = tested on: differentiated CD56+ NK cells; assay: Flow cytometry of NK cell, maturity and T cell markers on differentiated CD56+ NK cells at day 28; format: cell-based, Human; details: 100 nM UM171, day 28
Procedure: CD56^+ NK cells were differentiated as described in Examples 1 and 2 in the presence of 1 μM UM729 and analyzed on day 28 by flow cytometry for the expression of known NK cell markers. Cells were stained with fluorescence-conjugated antibodies against indicated NK cell markers for 15 min at 4° C. Non-specific binding was blocked using FcR blocker and 5% human or rat serum. Dead cells were excluded by light scatter profile and 7-AAD or DRAQ7 staining. Prepared samples were analyzed by flow cytometry.
CD56^+ NK cells were differentiated as described in Examples 1 and 2 in the presence of 1 μM UM729 and analyzed on day 28 by flow cytometry for the expression of known NK cell markers. The cells were stained for the markers described in this Example essentially as described in Example 3. Staining for KIR molecules was performed using a combination of two clones for the antibody, 180704 and HP-MA4, as each recognizes a distinct subset of KIR molecules. Dead cells were excluded by light scatter profile and 7-AAD or DRAQ7 staining.
Production of IFNγ by the differentiated CD56^+ NK cells was also measured. For IFNγ intracellular staining, differentiated CD56^+ NK Cells were stimulated with PMA/Ionomycin for 2 hours. Brefeldin A was added and the cells were incubated for another 2 hours. The cells were harvested and stained for CD56 and Zombie NIR viability dye then fixed, permeabilized and stained for intracellular IFNγ.
CD56^+ NK cells were differentiated as described in Examples 1 and 2 in the presence of pyrimidoindole compounds and analyzed on day 28 by flow cytometry for the expression of a T cell marker. The analyzed cells were stained for CD3 essentially as described in Example 3. Dead cells were excluded by light scatter profile and 7-AAD or DRAQ7 staining.

[2] = tested on: Cord blood-derived CD34+ HSPC cells; assay: UM171 added at different times of the day 0-28 NK differentiation culture, CD56 expression at day 28; format: cell-based, Human; details: analyzed at day 28
Procedure: (§1) […] CB cells were isolated and cultured as described in Example 1. As in Example 1 and 2 the different media were used in the day 0-14 and the day 14-28 cultures, except the day 0-14 culture medium was further supplemented with 100 nM UM171 to investigate its effect on the differentiation of CD4^+ HSPC to NK cells.
(§2) In these experiments UM171 was added to the cultures at different time points: days 0-14 (+/−); days 14-28 (−/+); or days 0-28 (+/+). Cultures without UM171 were also set up (−/−). Cells were either analyzed at day 28 for CD56 expression (FIG. 8) or at day 14 for CD7 and CD5 expression (FIG. 9).

CD34+ HSPC = assay: Differentiation of CD34+ HSPC into CD7+CD5+ NK cell progenitors (days 0-14), CD7 and CD5 expression at day 14; format: cell-based, Human; details: day 0-14 culture medium supplemented with 100 nM UM171, day 14
Procedure: as §1, §2

[3] = reported; cited from earlier work
[4] = 5 μM CH223191, no added pyrimidoindole compound, day 14 NK cell progenitors
[5] = 100 nM UM171, normalized to STD cultures, n=15
[6] = tested 0, 50, 100, 150, 200 nM, days 14-28
[7] = 100 nM UM171 between days 0-14 (+/−)
[8] = 100 nM UM171 between days 14-28 (−/+)

Compound	CD56+ NK cell frequency compared to absence of CH223191 (NK cell progenitors; [4])	CD56+ NK cell yield compared to absence of CH223191 (NK cell progenitors; [4])	Frequency of CD56+ NK cells compared to cultures lacking UM171 (NK cell progenitors; 100 nM UM171, 14 days culture of NK cell progenitors, paired t-test p=0.013)	Increase of average frequency of NK cells compared to culture conditions not including a pyrimidoindole compound (NK cell progenitors; [5])	Increase of average yield of NK cells compared to culture conditions not including a pyrimidoindole compound (NK cell progenitors; [5]) [fold]	Concentration at which frequency of CD56+ NK cells appeared to be highest (NK cell progenitors; [6]) [nM]	Concentration at which yield of CD56+ NK cells appeared to be highest (NK cell progenitors; [6]) [nM]	Expression of CD3 among differentiated cells ([1]; cord blood sample of a first donor)	Expression of CD3 among differentiated cells ([1]; cord blood sample of a second donor)	CD56+ cell frequency compared to cultures lacking UM171 on days 0-14 (−/−) [2, 7]	CD56+ cell yield compared to cultures lacking UM171 on days 0-14 (−/−) [2, 7]	NK cell frequency compared to cultures lacking UM171 (−/−) [2, 8]	NK cell yield compared to cultures lacking UM171 (−/−) [2, 8]	Effect of inclusion of UM171 during days 14-28 on CD56+ NK cell frequency and yield in the (+/+) condition ([2]; 100 nM UM171 days 0-28 (+/+))	Frequency of CD7+CD5+ NK cell progenitors compared to cultures not supplemented with UM171 (CD34+ HSPC)	Yield of CD7+CD5+ NK cell progenitors compared to cultures not supplemented with UM171 (CD34+ HSPC)	Potency relative to UM729 [3]
Cc1ccccc1N=Nc1ccc(NC(=O)c2ccnn2C)c(C)c1 [CH223191]	decreased	decreased															
Cn1nnc(-c2ccc3c(c2)[nH]c2nc(Cc4ccccc4)nc(N[C@H]4CC[C@H](N)CC4)c23)n1 [UM171, (1r,4r)-N^1-(2-benzyl-7-(2-methyl-2H-tetrazol-5-yl)-9H-pyrimido[4,5-13]indol-4-yl)cyclohexane-1,4-diamine]			increased significantly	~ 30%	2	100	100	virtually absent; also recorded: do not express CD3	virtually absent; also recorded: do not express CD3	lower	lower	increase	increase	can compensate for the effects of this compound on day 0-14 cultures	clear reduction	clear reduction	approximately 10 ×
